Columns and labels:
[1] = Incorporation of BCNU into GMO gel without disruption of the three-dimensional structure; type: physicochemical; conditions: physiologic temperature
Excerpt: The drug, such as BCNU, releases from the semisolid through diffusion, conceivably in a biphasic manner. A first phase involves, for example, a lipophilic drug contained within the lipophilic membrane diffuses therefrom into the aqueous channel 15. The second phase involves diffusion of the drug from the aqueous channel 15 into the external environment. Being lipophilic, BCNU orients itself inside the GMO gel within its proposed lipid bi-layer structure. Thus, incorporating greater than approximately 7.5% BCNU by weight into GMO causes a loss of the integrity of the three-dimensional structure whereby the gel system no longer maintains the semisolid cubic phase, and reverts to the viscous lamellar phase liquid.
It is possible to incorporate approximately 7.5% BCNU by weight into GMO gel at physiologic temperature without disruption of the normal three-dimensional structure. In addition, an average glioma tumor measures approximately 3 centimeters in diameter and equates to approximately 14 cubic centimeters in volume. As a result, approximately 11.5 to 12.0 grams of GMO gel may be implanted into the resection pocket. This equates to a possible drug dosage of approximately 900 milligrams with maximal drug. As stated earlier, the clinically recommended dose of BCNU delivered by Gliadel® Wafers to date is approximately 65 milligrams.

[2] = Miscibility of GMS in H2O; type: physicochemical
Excerpt: It is recognized that alternative semisolids, modified formulations and methods of production exist such that the lipophilic nature of the semisolid can be altered, or in the alternative, the aqueous channels 15 contained within the semisolid can be altered. Thus, various therapeutic agents in varying concentrations may diffuse from the semisolid at differing rates, or be released therefrom over time via the aqueous channels 15 of the semisolid. Hydrophilic substances may be utilized to alter semisolid consistency or drug release by alteration of viscosity, fluidity, surface tension or the polarity of the aqueous component. […] However, because GMS is a surfactant, GMS is miscible in H2O up to approximately 20% weight/weight. For purposes of this disclosure, the term “surfactant” means surface active agent, thus being miscible in H2O in limited concentrations as well as polar substances. Upon heating and stirring, the 80% H2O/20% GMS combination produces a spreadable paste having a consistency resembling hand lotion.

| miscibility in H2O [2] [% weight/weight] | SMILES | BCNU incorporated into GMO gel without disruption of the normal three-dimensional structure [1] |
| --- | --- | --- |
| – | O=NN(CCCl)C(=O)NCCCl [BCNU, 1,3-bis[2-chloroethyl]-1-nitrosourea] | approximately 7.5 % by weight |
| ≤ 20 | CCCCCCCCCCCCCCCCCC(=O)OCC(O)CO (centres unmarked) [GMS, glyceryl monostearate] | – |

Source: patent publication US6488952B1, “Semisolid therapeutic delivery system and combination semisolid, multiparticulate, therapeutic delivery system” (priority 2001, dated 2002)
